Reference: patent publication US7893299B2, “Interleukin-1 and tumor necrosis factor-αmodulators; syntheses of such modulators and methods of using such modulators” (Nereus Pharmaceuticals, Inc., priority 2005, dated 2011)
“Also recorded” adds a separate entry of the source.

Assays:
[1] = system: TNF-α production in THP-1 cells; test: LPS-induced TNF-α production in differentiated THP-1 cells (FLISA); assay type: cell-based; details: Homo sapiens, read-out: Percent TNF-α Inhibition; for inhibition at 0.1 µg/mL: 100 ng/ml; for inhibition at 1 µg/mL: 1 ug/ml; for inhibition at 10 µg/mL: 10 ug/ml
Experimental: The ability to inhibit TNF-α production was analyzed in THP-1 cells, a human acute monocytic leukemia cell line that is widely used to assess monocyte functions. In order to induce maturation, THP-1 cells were plated at 1×10^6 cells/ml and pretreated with 5 nM PMA for two days. Differentiated THP-1 cells were pretreated with various concentrations of TTL3 or its analogs for 1 hour, followed by a 4 hour incubation with 1 μg of LPS (Sigma, St. Louse, Mo.). The p38 inhibitor (SB 203580; Sigma, St. Louis, Mo.) was used as a positive control. Supernatants were collected and stored at −80° C. until assayed for TNF-α activity. A resazurin assay was performed for each analog to evaluate the effects on cell metabolism and viability.
To detect the presence of human TNFα, fluorescent linked immunosorbent assay or FLISA was developed and optimized. 100 μl of beads (6 μm, Spherotech) coated with goat anti-mouse IgG (1 mg/ml, R and D Systems) were mixed with 4 μl of biotin-anti-hTNFα mouse IgG (0.1 mg/ml, R and D Systems) and 2 μl of FMAT Blue-streptavidin (0.1 mg/ml, Applied Biosystems). 50 μl of the mixtures was combined with 50 μl of the supernatant isolated from treated THP-1 cells and added to the black wall FLISA plates (Applied Biosystems) and incubated overnight. The plates were scanned at factory set PMT setting, and the values were plotted and analyzed by Applied Biosystems software.

NO = assay type: cell-based, Murine; details: 10 μM
Experimental: After 2 days in culture the medium was replaced by phenol-red free RPMI 1640 medium supplemented with 0.5 mM arginine and 2% FCS followed by the addition of the indicated stimuli. TTL3, TTL1, LT-1-45, LT-1-85 and formula (IIB-A1) were added to cells at the final concentration of 10 μM for 15 min. DMSO was used as a control. Cells were then stimulated with 200 ng/ml of LPS and 20 units/ml of IFNγ for 18 hr. NO release was measured as the accumulation of nitrite and nitrate in the incubation medium (phenol-red free). Nitrate was reduced to nitrite with nitrate reductase and was determined spectrophotometrically with Griess reagent. To determine the protein levels of COX-2 and NOS-2, cells (1.5×10^6) were washed with PBS and collected by centrifugation. Cell pellets were homogenized with 100 μl of buffer A (10 mM Hepes; pH 7.9, 1 mM EDTA, 1 mM EGTA, 100 mM KCl, 1 mM dithiothreitol, 0.5 mM phenylmethylsulfonyl fluoride, 2 μg/ml aprotinin, 10 μg/ml leupeptin, 2 μg/ml Nα-p-tosyl-L-lysine chloromethyl ketone, 5 mM NaF, 1 mM Na3VO4, 10 mM Na2MoO4). After 10 min at 4° C., Nonidet P-40 was added to reach a 0.5% concentration. The tubes were gently vortexed for 15 sec and centrifuged at 8,000×g for 15 min. The supernatants were stored at −80° C. until use. Protein content was assayed using the Bio-Rad protein reagent. Protein extracts were separated by 10% SDS-polyacrylamide gel electrophoresis. The gels were blotted onto a Hybond P membrane and then incubated with appropriate primary antibodies: anti-NOS-2 or anti-cyclooxygenase-2. Antibody against β-actin was used as a control to confirm the loading of each sample. […] Different exposure times of the films were used to ensure that bands were not saturated. Quantification of the films was performed by laser densitometry.

[2] = system: D-GalN/LPS endotoxic shock; test: lethality induced by D-GalN/LPS in mice; assay type: in vivo, BALB/c mice; details: 5 μmol/kg i.p. 1 hour prior to D-GalN/LPS
Experimental: Male BALB/c mice, 8 to 10 weeks old were induced an endotoxic shock. The lethal injury was produced by an intraperitoneal (i.p.) injection of LPS (2 μg/kg) in combination with D-GalN (800 mg/kg). 5 μmol/kg of TTL3 or formula (IIB-A1) were administered by i.p. injection (0.5 ml) 1 hour prior to the challenge of D-GalN/LPS. Saline was given to the control animals. The lethality was monitored until 24 h after the administration of D-GalN/LPS.

RPMI 8226 cells = test: cell growth inhibition, RPMI 8226, Resazurin, 1% FBS; assay type: cell-based, Human; details: 48 hr of drug exposure
Experimental: Human prostate adenocarcinoma (PC-3; CRL-1435), multiple myeloma (RPMI 8226; CCL-155) and embryonic kidney (HEK-293; CRL-1573) cells were all purchased from ATCC and maintained in appropriate culture media. The cells were cultured in an incubator at 37° C. in 5% CO2 and 95% humidified air.
For cell growth inhibition assays, PC-3 and HEK-293 cells were seeded at 5×10^3 and 1.5×10^3 cells/well respectively in 90 μl media containing 1% (v/v) FBS into 96 well (Corning; 3904) black-walled, clear-bottom tissue culture plates and the plates were incubated overnight to allow cells to establish and enter log phase growth. RPMI 8226 cells were seeded at 2×10^4 cells/well respectively in 90 μl media containing 1% (v/v) FBS into 96 well plates on the day of the assay. 4 mg/ml stock solutions of the compounds were prepared in 100% DMSO and stored at −20° C. The compounds were serially diluted and added in triplicate to the test wells. LT-1-85 was tested at concentrations ranging from 27 μM to 8.6 nM. Concentrations ranging from 30 μM to 9.7 nM were tested for CC-3-13P. Formula (IIB-A1) was tested at concentrations ranging from 26 μM to 8.4 nM. The plates were returned to the incubator for 48 hours. The final concentration of DMSO was 0.25% in all samples.
Following 48 hours of drug exposure, 10 μl of 0.2 mg/ml Resazurin in Mg2+, Ca2+ free phosphate buffered saline was added to each well and the plates were returned to the incubator for 3-6 hours. Since living cells metabolize Resazurin, the fluorescence of the reduction product of Resazurin was measured using a Fusion microplate fluorometer (Packard Bioscience) with λex=535 nm and λem=590 nm filters. Resazurin dye in medium without cells was used to determine the background, which was subtracted from the data for all experimental wells. […] Where the maximum inhibition of cell growth was less than 50%, an EC50 value was not determined. The data in Table 25 summarize the growth inhibitory effects of LT-1-85, CC-3-13P and formula (IIB-A1) against HEK-293, PC-3 and RPMI 8226 cells. The EC50 values indicate that LT-1-85 and CC-3-13P are cytotoxic against HEK-293, PC-3 and RPMI 8226 cells. Formula (IIB-A1) is cytotoxic against RPMI 8226 cells.

C=C[C@@]1(C)CCC=C2[C@H]1CC[C@@H]1[C@](C)(C(=O)OC)CCC[C@@]21C [TTL3]
inhibition at 0.1 µg/mL [1]: 30% | inhibition at 1 µg/mL [1]: 55% | inhibition at 10 µg/mL [1]: 70% | synthesis of NO induced by LPS/IFNγ (NO): also reduced | protection against lethality / survival time [2]: extending three folds the survival time; also recorded: delay D-GalN/LPS lethality

C=C[C@@]1(C)CCC=C2[C@H]1CC[C@@H]1[C@](C)(C(=O)N3CCOCC3)CCC[C@@]21C [LT-1-85]
inhibition at 0.1 µg/mL [1]: 10% | inhibition at 1 µg/mL [1]: 45% | inhibition at 10 µg/mL [1]: 55% | synthesis of NO induced by LPS/IFNγ (NO): also reduced | EC50 (RPMI 8226 cells): 13 µM | EC50 (RPMI 8226 cells; Homo sapiens, RPMI-8226, 48 h): 14 µM

C=C[C@@]1(C)CCC=C2[C@H]1CC[C@@H]1[C@](C)(C(=O)NC3CCCCC3)CCC[C@@]21C [Formula (IIB-A1), N-Cyclohexylamide Derivative of TTL]
synthesis of NO induced by LPS/IFNγ (NO): also reduced | EC50 (RPMI 8226 cells; Homo sapiens, RPMI-8226, 48 h): 21 µM | protection against lethality / survival time [2]: delay D-GalN/LPS lethality | protection against lethality / survival time ([2]; listed as formula (IIB-A1)): extending three folds the survival time
